compound: Cc1cc([C@@H](C)Nc2ccccc2C(=O)O)c2nc(N3CCOCC3)cc(=O)n2c1 [AZD6482] + Nc1nc2[nH]cc(CCc3ccc(C(=O)N[C@@H](CCC(=O)O)C(=O)O)cc3)c2c(=O)[nH]1 [Pemetrexed] (partner 0.2 µM); assay: relative viability (nuclei count vs DMSO), 5 days (fraction); higher = more cells survive; conditions: first compound 0.08 µM
Outline: (§1)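 After 5 days of treatment, lung cancer cells in 1536-well plates were fixed and stained in a single step (final 0.05% Triton X-100, 1% formaldehyde, 1 ug/ml Hoechst) and their nuclei counted on 4× images. Treatment had been applied by pin tool the day after seeding as one drug alone or as a fixed anchor-drug dose with five library-drug doses (not always all listed) in √10 steps. Relative viability is the nuclei count of treated wells divided by that of vehicle wells, and values are medians of duplicate plates.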

Cell Line | relative viability
NCI-H2342 | 0.745
NCI-H1650 | 0.332
NCI-H1993 | 0.464
SW 1573 | 0.881
NCI-H838 | 0.287
LCLC-103H | 0.491
NCI-H520 | 0.501
NCI-H2126 | 0.683
EMC-BAC-2 | 0.415
NCI-H2085 | 0.567
HCC-366 | 0.173
NCI-H1666 | 0.902
NCI-H596 | 0.451
LK-2 | 0.276
NCI-H2087 | 0.682
NCI-H1648 | 0.892

Cell Line | relative viability
SK-MES-1 | 0.84
H3255 | 0.535
COR-L23 | 0.198
COR-L 105 | 0.935
LOU-NH91 | 0.376
ChaGo-K-1 | 0.259
NCI-H2170 | 0.257
NCI-H2405 | 0.81
HCC-44 | 0.669
NCI-H522 | 0.932
SW 900 | 0.479
NCI-H661 | 0.94
NCI-H1792 | 0.63
NCI-H1563 | 0.666
NCI-H358 | 0.16
NCI-H650 | 1.01

same assay, conditions: first compound 0.253 µM

Cell Line | relative viability
NCI-H2342 | 0.681
NCI-H1650 | 0.295
NCI-H1993 | 0.58
SW 1573 | 0.822
NCI-H838 | 0.264
LCLC-103H | 0.506
NCI-H520 | 0.409
NCI-H2126 | 0.677
EMC-BAC-2 | 0.45
NCI-H2085 | 0.384
HCC-366 | 0.202
NCI-H1666 | 0.964
NCI-H596 | 0.485
LK-2 | 0.276
NCI-H2087 | 0.63
NCI-H1648 | 0.625

Cell Line | relative viability
SK-MES-1 | 0.974
H3255 | 0.577
COR-L23 | 0.205
COR-L 105 | 1.13
LOU-NH91 | 0.373
ChaGo-K-1 | 0.262
NCI-H2170 | 0.242
NCI-H2405 | 0.977
HCC-44 | 0.661
NCI-H522 | 0.933
SW 900 | 0.476
NCI-H661 | 1.01
NCI-H1792 | 0.632
NCI-H1563 | 0.676
NCI-H358 | 0.174
NCI-H650 | 0.859

same assay, conditions: first compound 0.8 µM

Cell Line | relative viability
NCI-H2342 | 0.726
NCI-H1650 | 0.372
NCI-H1993 | 0.48
SW 1573 | 0.827
NCI-H838 | 0.25
LCLC-103H | 0.49
NCI-H520 | 0.394
NCI-H2126 | 0.692
EMC-BAC-2 | 0.438
NCI-H2085 | 0.407
HCC-366 | 0.204
NCI-H1666 | 0.905
NCI-H596 | 0.486
LK-2 | 0.263
NCI-H2087 | 0.596
NCI-H1648 | 0.816

Cell Line | relative viability
SK-MES-1 | 0.876
H3255 | 0.583
COR-L23 | 0.197
COR-L 105 | 1.26
LOU-NH91 | 0.444
ChaGo-K-1 | 0.271
NCI-H2170 | 0.265
NCI-H2405 | 0.987
HCC-44 | 0.763
NCI-H522 | 1.11
SW 900 | 0.501
NCI-H661 | 0.974
NCI-H1792 | 0.641
NCI-H1563 | 0.642
NCI-H358 | 0.164
NCI-H650 | 0.874

same assay, conditions: first compound 2.53 µM

Cell Line | relative viability
NCI-H2342 | 0.609
NCI-H1650 | 0.287
NCI-H1993 | 0.4
SW 1573 | 0.723
NCI-H838 | 0.226
LCLC-103H | 0.462
NCI-H520 | 0.144
NCI-H2126 | 0.411
EMC-BAC-2 | 0.414
NCI-H2085 | 0.317
HCC-366 | 0.209
NCI-H1666 | 0.735
NCI-H596 | 0.462
LK-2 | 0.193
NCI-H2087 | 0.593
SK-MES-1 | 0.394

Cell Line | relative viability
H3255 | 0.464
COR-L23 | 0.182
COR-L 105 | 0.761
LOU-NH91 | 0.521
ChaGo-K-1 | 0.262
NCI-H2170 | 0.252
NCI-H2405 | 0.569
HCC-44 | 0.741
NCI-H522 | 0.87
SW 900 | 0.358
NCI-H661 | 0.74
NCI-H1792 | 0.303
NCI-H1563 | 0.605
NCI-H358 | 0.154
NCI-H650 | 0.568

same assay, conditions: first compound 8 µM

Cell Line | relative viability
NCI-H2342 | 0.567
NCI-H1650 | 0.361
NCI-H1993 | 1.03
SW 1573 | 0.75
NCI-H838 | 0.232
LCLC-103H | 0.456
NCI-H520 | 0.222
NCI-H2126 | 0.434
EMC-BAC-2 | 0.413
NCI-H2085 | 0.299
HCC-366 | 0.275
NCI-H1666 | 0.82
NCI-H596 | 0.492
LK-2 | 0.176
NCI-H2087 | 0.674
NCI-H1648 | 0.671

Cell Line | relative viability
SK-MES-1 | 0.532
H3255 | 0.507
COR-L23 | 0.204
COR-L 105 | 1.21
LOU-NH91 | 0.493
ChaGo-K-1 | 0.258
NCI-H2170 | 0.251
NCI-H2405 | 0.436
HCC-44 | 0.831
NCI-H522 | 0.923
SW 900 | 0.384
NCI-H661 | 0.803
NCI-H1792 | 0.417
NCI-H1563 | 0.698
NCI-H358 | 0.145
NCI-H650 | 0.441

compound: COc1cc2nc(N3CCCN(C)CC3)nc(NC3CCN(Cc4ccccc4)CC3)c2cc1OC + CC1(C)CCC(c2ccc(Cl)cc2)=C(CN2CCN(c3ccc(C(=O)NS(=O)(=O)c4ccc(N[C@H](CCN5CCOCC5)CSc5ccccc5)c(S(=O)(=O)C(F)(F)F)c4)cc3)CC2)C1 [Navitoclax] (partner 0.5 µM); assay: as above; conditions: first compound 0.2 µM
Outline: as §1

Cell Line | relative viability
NCI-H727 | 0.495
NCI-H1650 | 1.25
EBC-1 | 0.408
NCI-H1703 | 1.25
NCI-H1993 | 0.919
SW 1573 | 0.941
NCI-H838 | 1.17
NCI-H520 | 1.21
NCI-H2126 | 0.847
EMC-BAC-2 | 1.16
NCI-H2085 | 1.03
Calu-6 | 0.84
HCC-366 | 1.04
NCI-H1666 | 0.934
NCI-H596 | 1.03
LK-2 | 0.91
NCI-H2087 | 1.06
SK-MES-1 | 1.14
H3255 | 0.517
COR-L23 | 1.05
COR-L 105 | 0.925
IA-LM | 0.761
LOU-NH91 | 0.717
ChaGo-K-1 | 0.987
NCI-H2170 | 0.707
NCI-H2405 | 0.829
HCC-44 | 0.908
A549 | 1.24
NCI-H1299 | 1.07
NCI-H1792 | 0.665

same assay, conditions: first compound 0.6325 µM

Cell Line | relative viability
NCI-H727 | 0.517
NCI-H1650 | 1.07
EBC-1 | 0.386
NCI-H1703 | 0.92
NCI-H1993 | 0.97
SW 1573 | 0.868
NCI-H838 | 1.13
NCI-H520 | 0.89
NCI-H2126 | 0.777
EMC-BAC-2 | 1.14
NCI-H2085 | 1.12
Calu-6 | 0.809
HCC-366 | 1.12
NCI-H1666 | 1.16
NCI-H596 | 0.851
LK-2 | 0.843
NCI-H2087 | 0.933
SK-MES-1 | 1.24
H3255 | 0.59
COR-L23 | 1.08
COR-L 105 | 0.749
IA-LM | 0.689
LOU-NH91 | 0.688
ChaGo-K-1 | 1.05
NCI-H2170 | 0.577
NCI-H2405 | 0.826
HCC-44 | 0.968
A549 | 1.13
NCI-H1299 | 1.04
NCI-H1792 | 0.639

same assay, conditions: first compound 2 µM

Cell Line | relative viability
NCI-H727 | 0.381
NCI-H1650 | 1.48
EBC-1 | 0.382
NCI-H1703 | 1.11
NCI-H1993 | 1.04
SW 1573 | 1.08
NCI-H838 | 1.27
NCI-H520 | 0.989
NCI-H2126 | 0.804
EMC-BAC-2 | 1.14
NCI-H2085 | 1.27
Calu-6 | 0.763
HCC-366 | 1.21
NCI-H1666 | 1.03
NCI-H596 | 0.949
LK-2 | 1.16
NCI-H2087 | 1.28
SK-MES-1 | 1.36
H3255 | 0.669
COR-L23 | 1.15
COR-L 105 | 0.938
IA-LM | 1.01
LOU-NH91 | 0.578
ChaGo-K-1 | 1.13
NCI-H2170 | 0.494
NCI-H2405 | 0.84
HCC-44 | 1.02
A549 | 1.14
NCI-H1299 | 1.09
NCI-H1792 | 0.66

same assay, conditions: first compound 6.325 µM

Cell Line | relative viability
NCI-H727 | 0.225
NCI-H1650 | 1.07
EBC-1 | 0.165
NCI-H1703 | 0.41
NCI-H1993 | 0.991
SW 1573 | 0.755
NCI-H838 | 1.08
NCI-H520 | 0.867
NCI-H2126 | 0.81
EMC-BAC-2 | 1.17
NCI-H2085 | 0.981
Calu-6 | 0.602
HCC-366 | 1.05
NCI-H1666 | 0.642
NCI-H596 | 0.821
LK-2 | 0.637
NCI-H2087 | 0.854
SK-MES-1 | 0.999
H3255 | 0.544
COR-L23 | 1.08
COR-L 105 | 0.486
IA-LM | 0.64
LOU-NH91 | 0.742
ChaGo-K-1 | 0.72
NCI-H2170 | 0.582
NCI-H2405 | 0.728
HCC-44 | 0.945
A549 | 1.06
NCI-H1299 | 1.02
NCI-H1792 | 0.629

compound: Cc1cc([C@@H](C)Nc2ccccc2C(=O)O)c2nc(N3CCOCC3)cc(=O)n2c1 [AZD6482] + CC1(C)CCC(c2ccc(Cl)cc2)=C(CN2CCN(c3ccc(C(=O)NS(=O)(=O)c4ccc(N[C@H](CCN5CCOCC5)CSc5ccccc5)c(S(=O)(=O)C(F)(F)F)c4)cc3)CC2)C1 [Navitoclax] (partner 0.5 µM); assay: as above; conditions: first compound 0.08 µM
Outline: as §1

Cell Line | relative viability
NCI-H727 | 0.469
NCI-H1650 | 0.873
EBC-1 | 0.273
NCI-H1703 | 0.902
NCI-H1993 | 0.779
SW 1573 | 0.887
NCI-H838 | 0.984
NCI-H520 | 0.839
NCI-H2126 | 0.744
EMC-BAC-2 | 1.09
NCI-H2085 | 0.803
Calu-6 | 0.662
HCC-366 | 0.937
NCI-H1666 | 0.794
NCI-H596 | 0.596
LK-2 | 0.779
NCI-H2087 | 0.847
SK-MES-1 | 1.08
H3255 | 0.501
COR-L23 | 0.711
COR-L 105 | 0.78
IA-LM | 0.859

— the supplement of paper PMC10307832
